Data on three molecules can be found in paper PMC10804612, “In vivo validation of psilacetin as a prodrug yielding modestly lower peripheral psilocin exposure than psilocybin” (Frontiers in Psychiatry, 2024).

For one data set, the system named is head twitch responses. Further details: method as in PMID 33860183. The settings on record: equimolar basis; cited from earlier work.
Another data set has as its system 5-HT2A receptor. Set-up: method as in PMID 36407948, PMID 33860183. The settings on record: in vitro; cited from earlier work.
Data set [1] can be described thus: Plasma psilocin by LC-MS/MS after intraperitoneal psilocybin or psilacetin fumarate.
The conditions of data set [2]: cited from earlier work.

Consider `CC(=O)Oc1cccc2[nH]cc(CCN(C)C)c12` [psilacetin, 4-acetoxy-N,N-dimethyltryptamine], for which the “head twitch response potency” value in the data set on head twitch responses is 1.12 µmol/kg. For the same molecule, the “receptor potency, fold lower than that of psilocin” value in the data set on 5-HT2A receptor is reported as 10- to 20 fold.
In data set [1] (both, C57Bl6/J, mouse, plasma, ip), `CN(C)CCc1c[nH]c2cccc(O)c12` [psilocin] showed a k el of 0.000433 s⁻¹. Moreover, the half-life (in general, the time in which the quantity being followed falls by half) in data set [1] (both, C57Bl6/J, mouse, plasma, ip, psilocin half-life (T1/2), plasma psilocin from psilocybin or psilacetin, mice) was about 30 min. In addition, the “plasma psilocin concentration by 4 h after administration” value in data set [1] (lower limit of quantitation 0.1 ng/mL, approximately 6 half-lives) is reported as “near or below the lower limit of quantitation”. In addition, in data set [1] (plasma psilocin, mice), the psilocin half-life entry is “approximately one-half”. Further, the “terminal elimination rate of psilocin, range” value in data set [1] (range across tested conditions) was 0.020–0.038 min^1. In addition, in the data set on head twitch responses, the “head twitch response potency” value was 0.81 µmol/kg.
As to `CN(C)CCc1c[nH]c2cccc(OP(=O)(O)O)c12` [psilocybin], the “plasma concentrations in human pharmacokinetic studies” value in data set [2] was 5 to 50 ng/mL.
